How the values were obtained:
HDAC-1 = molecular target: T1, HDAC-1 (Homo sapiens, UniProt Q13547); assay: HDAC Inhibition Assay (purified GST-HDAC protein); assay type: biochemical
T1 construct: made in house; host or cells: Sf9 or Sf21 insect cells (baculovirus, donor vector pFB-GSTX3)
From the text: The baculovirus donor vector pFB-GSTX3 is used to generate a recombinant baculovirus that expresses the HDAC polypeptide. Transfer vectors containing the HDAC coding region are transfected into the DH10Bac cell line (GIBCO) and plated on selective agar plates. Colonies without insertion of the fusion sequence into the viral genome (carried by the bacteria) are blue. Single, white colonies are picked and viral DNAs (bacmid) are isolated from the bacteria by standard plasmid purification procedures. Sf9 cells or Sf21 (American Type Culture Collection) cells are then transfected in […] flasks with the viral DNA using Cellfectin reagent.
Virus-containing media is collected from the transfected cell culture and used for infection to increase its titer. Virus-containing media obtained after two rounds of infection is used for large-scale protein expression. For large-scale protein expression 100 cm^2 round tissue culture plates are seeded with 5×10^7 cells/plate and infected with 1 mL of virus-containing media (at an approximately MOI of 5). After 3 days, the cells are scraped off the plate and centrifuged at 500 rpm for 5 minutes. Cell pellets from 10-20, 100 cm^2 plates, are re-suspended in 50 mL of ice-cold lysis buffer (25 mM tris-HCl, pH 7.5, 2 mM EDTA, 1% NP-40, 1 mM DTT, 1 mM P MSF). The cells are stirred on ice for 15 minutes and then centrifuged at 5,000 rpms for 20 minutes.
The centrifuged cell lysate is loaded onto a 2 mL glutathione-sepharose column (Pharmacia) and is washed thrice with 10 mL of 25 mM tris-HCl, pH 7.5, 2 mM EDTA, 1 mM DTT, 200 mM NaCl. The GST-tagged proteins are then eluted by 10 applications (1 mL each) of 25 mM tris-HCl, pH 7.5, 10 mM reduced-glutathione, 100 mM NaCl, 1 mM DTT, 10% glycerol and stored at −70° C.
HDAC assays with purified GST-HDAC protein are carried out in a final volume of 30 μL containing 15 ng of GST-HDAC protein, 20 mM tris-HCl, pH 7.5, 1 mM MnCl2, 10 mM MgCl2, 1 mM DTT, 3 μg/mL poly(Glu,Tyr) 4:1, 1% DMSO, 2.0 μM ATP (γ-[^33P]-ATP 0.1 μCi). The activity is assayed in the presence or absence of inhibitors. The assay is carried out in 96-well plates at ambient temperature for 15 minutes under conditions described below and terminated by the addition of 20 μL of 125 mM EDTA. Subsequently, 40 μL of the reaction mixture are transferred onto EMMOBILON-PVDF membrane (Millipore) previously soaked for 5 minutes with methanol, rinsed with water, then soaked for 5 minutes with 0.5% H3PO4 and mounted on vacuum manifold with disconnected vacuum source. After spotting all samples, a vacuum is connected and each well-rinsed with 200 μL 0.5% H3PO4. Membranes are removed and washed four times on a shaker with 1.0% H3PO4, once with ethanol. Membranes are counted after drying at ambient temperature, mounting in Packard TopCount 96-well frame, and addition of 10 μL/well of MICROSCINT™ (Packard). IC50 values are calculated by linear regression analysis of the percentage inhibition of each compound in duplicate, at 4 concentrations (usually 0.01, 0.1, 1 and 10 μM).
• Input: 3×4 μL stopped assay on IMMOBILON membrane, not washed • Background (3 wells): assay with H2O instead of enzyme • Positive control (4 wells): 3% DMSO instead of compound • Bath control (1 well): no reaction mix
IC50 values are calculated by logarithmic regression analysis of the percentage inhibition of each compound at 4 concentrations (usually 3- or 10-fold dilution series starting at 10 μM). In each experiment, the actual inhibition by reference compound is used for normalization of IC50 values to the basis of an average value of the reference inhibitor:
Normalized IC50=measured IC50 average ref. IC50/measured ref. IC50

HCT116 = HCT116 IC50 (Table 2, no method described); assay type: cell-based; details: Homo sapiens, HCT-116

T1 sequence (Q13547 whole entry, species assumed): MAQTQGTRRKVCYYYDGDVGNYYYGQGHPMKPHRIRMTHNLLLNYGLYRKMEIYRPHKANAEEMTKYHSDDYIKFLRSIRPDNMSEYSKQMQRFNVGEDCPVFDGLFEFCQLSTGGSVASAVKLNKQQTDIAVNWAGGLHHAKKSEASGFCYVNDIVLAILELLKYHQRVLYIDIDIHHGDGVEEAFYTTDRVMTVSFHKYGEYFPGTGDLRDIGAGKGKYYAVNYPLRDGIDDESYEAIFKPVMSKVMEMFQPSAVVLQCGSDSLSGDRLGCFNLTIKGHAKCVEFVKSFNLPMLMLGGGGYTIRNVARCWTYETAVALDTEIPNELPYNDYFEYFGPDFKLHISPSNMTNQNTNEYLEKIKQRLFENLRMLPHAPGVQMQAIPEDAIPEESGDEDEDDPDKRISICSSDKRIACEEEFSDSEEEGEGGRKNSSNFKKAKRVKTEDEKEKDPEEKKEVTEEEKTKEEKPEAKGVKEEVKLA

IC50 (HDAC-1)	IC50 (HCT116)	SMILES
37 nM	52 nM	O=C(/C=C/c1ccc(CN2C[C@H](O)C[C@@H]2Cn2nc(C(F)(F)F)cc2C(F)(F)F)cc1)NO [Cpd 52, (E)-3-{4-[(2R,4R)-2-(3,5-Bis-trifluoromethyl-pyrazol-1-ylmethyl)-4-hydroxy-pyrrolidin-1-ylmethyl]-phenyl}-N-hydroxy-acrylamide]
39 nM	31 nM	O=C(/C=C/c1ccc(CN2CCC[C@@H]2Cn2nc(C(F)(F)F)cc2C(F)(F)F)cc1)NO [Cpd 51, (E)-3-{4-[(R)-2-(3,5-Bis-trifluoromethyl-pyrazol-1-ylmethyl)-pyrrolidin-1-ylmethyl]-phenyl}-N-hydroxy-acrylamide]
350 nM	7000 nM	O=C(/C=C/c1ccc(CN2CCC[C@H]2C(=O)N2CCc3ccccc32)cc1)NO [Cpd 18, (E)-3-{4-[(S)-2-(2,3-Dihydro-indole-1-carbonyl)-pyrrolidin-1-ylmethyl]-phenyl}-N-hydroxy-acrylamide]
1.7 nM	–	Cc1[nH]c2ccccc2c1C[C@H]1C[C@H](O)CN1Cc1ccc(/C=C/C(=O)NO)cn1 [Cpd 28, (E)-N-Hydroxy-3-{6-[(2S,4S)-4-hydroxy-2-(2-methyl-1H-indol-3-ylmethyl)-pyrrolidin-1-ylmethyl]-pyridin-3-yl}-acrylamide]
20 nM	–	O=C(/C=C/c1ccc(CN2CCC[C@@H]2Cc2nc(-c3ccccc3)no2)cc1)NO [Cpd 39, (E)-N-Hydroxy-3-{4-[(R)-2-(3-phenyl-[1,2,4]oxadiazol-5-ylmethyl)-pyrrolidin-1-ylmethyl]-phenyl}-acrylamide]
0.7 nM	–	Cc1nn(-c2ccccc2)c(C)c1C[C@H]1C[C@H](O)CN1Cc1ccc(/C=C/C(=O)NO)cc1 [Cpd 33, (E)-3-{4-[(2S,4S)-2-(3,5-Dimethyl-1-phenyl-1H-pyrazol-4-ylmethyl)-4-hydroxy-pyrrolidin-1-ylmethyl]-phenyl}-N-hydroxy-acrylamide]
1.3 nM	2.4 nM	Cc1[nH]c2ccccc2c1C[C@H]1CCCN1[C@@H](C)c1ccc(/C=C/C(=O)NO)cc1 [Cpd 14, (E)-N-Hydroxy-3-(4-{(S)-1-[(R)-2-(2-methyl-1H-indol-3-ylmethyl)-pyrrolidin-1-yl]-ethyl}-phenyl)-acrylamide]
1 nM	3 nM	Cc1[nH]c2ccccc2c1C[C@H]1CCCN1[C@H](C)c1ccc(/C=C/C(=O)NO)cc1 [Cpd 15, (E)-N-Hydroxy-3-(4-{(R)-1-[(R)-2-(2-methyl-1H-indol-3-ylmethyl)-pyrrolidin-1-yl]-ethyl}-phenyl)-acrylamide]
2 nM	16 nM	Cc1nn(C)c(C)c1C[C@H]1C[C@H](O)CN1Cc1ccc(/C=C/C(=O)NO)cc1 [Cpd 31, (E)-N-Hydroxy-3-{4-[(2S,4S)-4-hydroxy-2-(1,3,5-trimethyl-1H-pyrazol-4-ylmethyl)-pyrrolidin-1-ylmethyl]-phenyl}-acrylamide]
0.6 nM	1 nM	Cc1[nH]c2ccccc2c1C[C@H]1C[C@@H](O)CN1Cc1ccc(/C=C/C(=O)NO)cc1 [Cpd 20, (E)-N-Hydroxy-3-{4-[(2S,4R)-4-hydroxy-2-(2-methyl-1H-indol-3-ylmethyl)-pyrrolidin-1-ylmethyl]-phenyl}-acrylamide]
0.7 nM	1 nM	Cc1[nH]c2ccccc2c1C[C@H]1C[C@H](O)CN1Cc1ccc(/C=C/C(=O)NO)cc1 [Cpd 21, (E)-N-Hydroxy-3-{4-[(2S,4S)-4-hydroxy-2-(2-methyl-1H-indol-3-ylmethyl)-pyrrolidin-l-ylmethyl]-phenyl}-acrylamide]
36 nM	100 nM	O=C(/C=C/c1ccc(CN2CCC[C@H]2CN2CCc3ccccc32)cc1)NO [Cpd 19, (E)-3-{4-[(S)-2-(2,3-Dihydro-indol-1-ylmethyl)-pyrrolidin-1-ylmethyl]-phenyl}-N-hydroxy-acrylamide]
0.65 nM	0.4 nM	Cc1[nH]c2ccccc2c1C[C@H]1CCCN1Cc1ccc(/C=C/C(=O)NO)cc1 [Cpd 4, (E)-N-Hydroxy-3-{4-[(R)-2-(2-methyl-1H-indol-3-ylmethyl)-pyrrolidin-1-ylmethyl]-phenyl}-acrylamide]
3 nM	4 nM	Cc1cc(C)n(C[C@H]2CCCN2Cc2ccc(/C=C/C(=O)NO)cc2)n1 [Cpd 50, (E)-3-{4-[(R)-2-(3,5-Dimethyl-pyrazol-1-ylmethyl)-pyrrolidin-1-ylmethyl]-phenyl}-N-hydroxy-acrylamide]
38 nM	520 nM	O=C(/C=C/c1ccc(CN2CCC[C@@H]2C(=O)c2c[nH]c3ccccc23)cc1)NO [Cpd 12, (E)-N-Hydroxy-3-{4-[(R)-2-(1H-indole-3-carbonyl)-pyrrolidin-1-ylmethyl]-phenyl}-acrylamide]
15 nM	26 nM	O=C(/C=C/c1ccc(CN2CCC[C@@H]2Cn2cccn2)cc1)NO [Cpd 49, (E)-N-Hydroxy-3-[4-((R)-2-pyrazol-1-ylmethyl-pyrrolidin-1-ylmethyl)-phenyl]-acrylamide]
10 nM	100 nM	O=C(/C=C/c1ccc(CN2CCC[C@H]2Cc2c[nH]c3ccccc23)cc1)NO [Cpd 1, (E)-N-Hydroxy-3-{4-[(S)-2-(1H-indol-3-ylmethyl)-pyrrolidin-1-ylmethyl]-phenyl}-acrylamide]
1.7 nM	8 nM	O=C(/C=C/c1ccc(CN2C[C@H](O)C[C@@H]2Cc2c[nH]c3ccccc23)cc1)NO [Cpd 23, (E)-N-Hydroxy-3-{4-[(2S,4R)-4-hydroxy-2-(1H-indol-3-ylmethyl)-pyrrolidin-1-ylmethyl]-phenyl}-acrylamide]
56 nM	560 nM	O=C(/C=C/c1ccc(CN2CCC[C@H]2C(=O)c2c[nH]c3ccccc23)cc1)NO [Cpd 11, (E)-N-Hydroxy-3-{4-[(S)-2-(1H-indole-3-carbonyl)-pyrrolidin-1-ylmethyl]-phenyl}-acrylamide]
27 nM	–	Cc1nn(-c2ccccc2)c(C)c1C(O)[C@H]1C[C@H](O)CN1Cc1ccc(/C=C/C(=O)NO)cc1 (stereo partly drawn) [Cpd 34, (E)-3-(4-{(2R,4S)-2-[(3,5-Dimethyl-1-phenyl-1H-pyrazol-4-yl)-hydroxy-methyl]-4-hydroxy-pyrrolidin-1-ylmethyl}-phenyl)-N-hydroxy-acrylamide]
1.7 nM	–	Cc1[nH]c2ccccc2c1C[C@H]1CCCN1Cc1ccc(/C=C/C(=O)NO)cn1 [Cpd 26, (E)-N-Hydroxy-3-{6-[(R)-2-(2-methyl-1H-indol-3-ylmethyl)-pyrrolidin-1-ylmethyl]-pyridin-3-yl}-acrylamide]
170 nM	–	O=C(/C=C/c1ccc(CN2C[C@H](O)C[C@@H]2Cn2cc(-c3cccnc3)nn2)cc1)NO [Cpd 41, (E)-N-Hydroxy-3-{4-[(2R,4R)-4-hydroxy-2-(4-pyridin-3-yl-[1,2,3]triazol-1-ylmethyl)-pyrrolidin-1-ylmethyl]-phenyl}-acrylamide]
8 nM	–	CC(C)CC1CCCN1Cc1ccc(/C=C/C(=O)NO)cc1 (centres unmarked) [Cpd 5, (E)-N-Hydroxy-3-[4-(2-isobutyl-pyrrolidin-1-ylmethyl)-phenyl]-acrylamide]
380 nM	–	CC(c1ccc(/C=C/C(=O)NO)cc1)N1CCC[C@H]1CN1CCCC1 (stereo partly drawn) [Cpd 16, (E)-N-Hydroxy-3-{4-[1-((S)-2-pyrrolidin-1-ylmethyl-pyrrolidin-1-yl)-ethyl]-phenyl}-acrylamide]
5 nM	–	O=C(/C=C/c1ccc(CN2CCCC2Cc2cccnc2)cc1)NO (centres unmarked) [Cpd 6, (E)-N-Hydroxy-3-[4-(2-pyridin-3-ylmethyl-pyrrolidin-1-ylmethyl)-phenyl]-acrylamide]
